US5677459A, “Methods for the preparation of modulators of acetylcholine receptors” (Sibia Neurosciences, Inc., priority 1995, dated 1997)
Read-outs that look alike come from different tables or passages of the source.

Tests used:
[1] = tested on: ^3 H-Norepinephrine release, rat hippocampus slices; experiment: Ligand-stimulated ^3 H-norepinephrine release from rat hippocampus slices; format: cell-based; conditions: in vitro slices, 300 μM
[2] = tested on: rats with unilateral 6-hydroxydopamine lesions of the nigrostriatal dopamine pathway; format: in vivo, rat (male Sprague-Dawley); conditions: 20 mg/kg, s.c., per one hour interval
Experimental: Selective lesions of the brain dopamine pathway using the neurotoxin 6-hydroxydopamine (6-OHDA) in rats can be used as an experimental approach to Parkinson's disease. Unilateral lesions of the nigrostriatal dopamine pathway induce a postural asymmetry which becomes manifested as rotation when the animals are activated by dopamine releasers or dopamine agonists. When amphetamine and other stimulant drugs that induce pre-synaptic release of dopamine from intact nerve terminals are administered, the rats rotate in a direction ipsilateral to the lesion. In contrast, when the rats are injected with post-synaptic dopamine receptor agonists, such as apomorphine, they turn in a contralateral direction, due to the development of supersensitive dopamine receptors in the lesioned side. Thus, the 6-OHDA model can be used to determine if a suspected dopaminergic agent is active, and to differentiate whether such action is pre- or post-synaptic.
The effects of invention compounds on rotational behavior in 6-hydroxydopamine denervated rats were evaluated using the procedure of Ungerstedt and Arbutknott, Brain Res. 24:485-493 (1970). Male Sprague-Dawley rats (Zivic Miller) weighing 170-200 gm were used in the 6-OHDA procedure. The ascending nigrostriatal dopamine pathway was lesioned by unilateral stereotaxic injection of 6-OHDA (8.0 μg) into one substantia nigra. All injections of 6-OHDA were preceded by desmethylimipramine (25 mg/kg i.p.) and pargyline (75 mg/kg i.p.) approximately 30 minutes prior to undergoing stereotaxic surgery for 6-OHDA infusion into the substantia nigra. After one week of recovery from surgery, the effectiveness of the lesions was verified by noting the response of the animals to apomorphine (0.2 mg/kg, s.c.). Only rats with a minimum rate of 80 contralateral turns per 30 minutes (a sign of more than 80-90% dopamine depletion after a 6-OHDA lesion) were used. Two weeks later, the selected rats were tested with invention and reference compounds using an automated rotometer system to record the number and direction of rotations. In order to distinguish spontaneous (non-specific)rotations from induced rotations (specific to the effect of the drug), each rat was used as its own control, employing the following procedure:
The rat was placed in the rotometer system for acclimatation for 15 minutes, the vehicle administered subcutaneously, the rat's rotations recorded for one hour, then test compound was administered s.c. and rotations again recorded for one hour. The number of ipsilateral rotations induced by vehicle was then compared to the number of ipsilateral rotations induced by test compound. Statistical analysis of the data was carried out using Student's t-test (paired).

[3] = tested on: rats; experiment: Locomotor activity assay; format: in vivo, rat (male Sprague-Dawley); conditions: Rattus norvegicus, sc, 20 mg/kg, s.c.
[4] = 1 h, 0-60 min, read-out: Ambulation (cross overs), percent of change from control
[5] = 1 h, 0-60 min, read-out: General Activity (beam breaks), percent of change from control
[6] = 2 h, 60-120 min, read-out: General Activity (beam breaks), percent of change from control
[7] = 2 h, 60-120 min, read-out: Ambulation (cross overs), percent of change from control

SMILES	percent fractional release, ^3 H-Norepinephrine, Hippocampus [1] [%]	Percent change from control (ipsilateral rotations) [2]	change in vivo at 20 mg/kg [3, 4] [%]	change in vivo at 20 mg/kg [3, 5] [%]	change in vivo at 20 mg/kg [3, 6] [%]	change in vivo at 20 mg/kg [3, 7] [%]
C#Cc1cncc(C2CCCN2C)c1.O=C(O)/C=C/C(=O)O (racemic) [R^5 = ethynyl (racemic), 5-Ethynyl-3-(1-methyl-2-pyrrolidinyl)pyridine fumarate]	0.69	+406%	631	509	628	
CN1CCCC1c1cncc(-c2ccc(O)c(Cl)c2)c1.O=C(O)/C=C/C(=O)O (centres unmarked) [R^5 = 3-chloro-4-hydroxyphenyl, 5-(4-hydroxy-3-chlorophenyl)-3-(1-methyl-2-pyrrolidinyl)pyridine fumarate]	2.5	-40%	63	68	-17	-36
CN1CCCC1c1cncc(-c2cccc(Cl)c2)c1.O=C(O)/C=C/C(=O)O (centres unmarked) [R^5 = 3-chlorophenyl, 5-(3-Chlorophenyl)-3-(1-methyl-2-pyrrolidinyl) pyridine fumarate]	1.45	+62%	48	70	220	268
COc1ccc(-c2cncc(C3CCCN3C)c2)cc1F.O=C(O)/C=C/C(=O)O (centres unmarked) [R^5 = 3-fluoro-4-methoxyphenyl, 5-(3-Fluoro-4-methoxyphenyl)-3-(1-methyl-2-pyrrolidinyl)pyridine fumarate]	0.73	-3%	58	78	202	268
